Test results taken from patent US20110034692A1 (ZENTIVA, K.S., priority 2008, published 2011).
Where two headings read alike, the source gives them in different places.

Experiments:
[1] = for content of (Z)-montelukast in isolated montelukast: after 3 hours reflux in toluene, precipitation with heptane
[2] = Light exposure of methanolic montelukast solution to sunshine under inert argon, (Z)-isomer content by HPLC; assay type: physicochemical; details: methanol solution, argon atmosphere
[3] = Stress test: methanolic solution of montelukast exposed to sunshine and air oxygen, HPLC monitoring; assay type: physicochemical
Method: The solution in glass apparatus was exposed to the influence of sunshine and air oxygen and samples were take repeatedly (at the times of 40 minutes, 1 day, 4 days and 14 days) (20 μl of the mixture further diluted by methanol to the volume of 1 ml) for HPLC analysis in the isocratic mode.
HPLC chromatograms were measured with the EliteLachrom device of Hitachi. For the analyses a column filled with the stationary phase of RP-18e was used, column temperature 20° C. As the mobile phase a mixture of acetonitrile (80%) and a 0.1 M aqueous solution of ammonium formate, treated with formic acid to pH 3.6 (20%), was used. The measurements were performed in the isocratic mode with the mobile phase flow rate of 1.5 ml/min. Spectrophotometric detection at the wavelength of 234 nm was used. For the preparation of the samples to be analyzed methanol was used as the solvent, 10-20 μl of the prepared solution were used for the injection.

| content of (Z)-montelukast in isolated montelukast [1] | content of (Z)-montelukast in isolated montelukast ([1]; listed as (Z)-isomer) | content of (Z)-montelukast, initial mixture of isomers ([1]; before reflux, toluene solution) [%] | content of (Z)-montelukast after 30 minutes of reflux ([1]; toluene, without light) [%] | content of (Z)-montelukast after 60 minutes of reflux ([1]; toluene, without light) [%] | content of the (Z)-isomer according to HPLC after exposure to sunshine ([2]; sunshine 1.5 hours (Example 7)) [%] | content of the (Z)-isomer according to HPLC after exposure to sunshine ([2]; sunshine 1.5 hours (Example 7), listed as Montelukast) | content of the (Z)-isomer according to HPLC after exposure to sunshine ([2]; sunshine 4 days (Example 9)) | rate of transformation of montelukast to (Z)-montelukast sulfoxide (XII) ([3]; light and oxygen induced degradation) | rate of transformation of montelukast (I) to (Z)-montelukast (V) ([3]; methanolic solution, sunshine and air oxygen) | sensitivity of the substance to light and air oxygen ([3]; methanolic solution, sunshine and air oxygen, HPLC isocratic) | SMILES |
| --- | --- | --- | --- | --- | --- | --- | --- | --- | --- | --- | --- |
| below 0.1% | less than 0.1% | 11 | 5.6 | 2.7 |  |  |  |  |  |  | CC(C)(O)c1ccccc1CC[C@@H](SCC1(CC(=O)[O-])CC1)c1cccc(/C=C\c2ccc3ccc(Cl)cc3n2)c1.[Na+] [(Z)-montelukast, sodium salt of 1-[[[(1R)-1-[3-[(1Z)-2-(7-chloro-2-quinolinyl)ethenyl]phenyl]-3-[2-(1-hydroxy-1-methylethyl)phenyl]propyl]thio]methyl]cyclopropane acetic acid] |
|  |  |  |  |  | 11 | approximately 11% | approx. 73% | relatively slow | unexpectedly fast | high sensitivity | CC(C)(O)c1ccccc1CC[C@@H](SCC1(CC(=O)[O-])CC1)c1cccc(/C=C/c2ccc3ccc(Cl)cc3n2)c1.[Na+] [montelukast, sodium salt of [R-(E)]-1-[[[1-[3-[2-(7-chloro-2-quinolinyl)ethenyl]phenyl]-3-[2-(1-hydroxy-1-methylethyl)phenyl]propyl]thio]-methyl]cyclopropane acetic acid] |
